According to patent publication US20230255927A1 (ELANCO TIERGESUNDHEIT AG, priority 2022, published 2023):

Tested on: lactating Holstein cows
Experiment: Wisconsin Study: dietary monensin fed to lactating cows for 9 weeks
Format: in vivo
Experimental: Methods: […] All cows received 11 g/ton Rumensin for a 5-week covariate period after which pens received 1 of 4 dietary treatments (n=3) formulated to provide 0 g/ton (Control, “CON”), 11 g/ton (R11), 14.5 g/ton (R14.5), or 18 g/ton (R18) of Rumensin for 9 weeks. Basal diet was 54% forage and 27% Neutral Detergent Fiber (NDF), 29% starch, and 2.3% Rumen Unsaturated Fatty Acid Load (RUFAL). The pen was the experimental unit, and data were analyzed using the Fit Model Procedure of JMP with treatment as a fixed effect and pen as a random effect. LS-means were determined and contrasts of CON vs. R11, CON vs. R14.5, CON vs. R18, and linear and quadratic effects were tested.

[1] = all treatments, not affected by treatment

CC[C@@]1([C@@H]2O[C@@H]([C@H]3O[C@@](O)(CO)[C@H](C)C[C@@H]3C)C[C@@H]2C)CC[C@H]([C@]2(C)CC[C@]3(C[C@H](O)[C@@H](C)[C@@H]([C@@H](C)[C@@H](OC)[C@H](C)C(=O)O)O3)O2)O1 [monensin]
DMI (R11, 11 g/ton): 60 lb/d
De novo fatty acid yield (R11, 11 g/ton): 0.99 g/100 g milk
ECM (R11, 11 g/ton): 106 lb/d
Estimated Dietary Energy (R11, 11 g/ton): 1.70 Mcal/kg DM
Milk Fat (R11, 11 g/ton): 4.13%
Milk Yield (R11, 11 g/ton): 98 lb/d
Protein (R11, 11 g/ton): 3.16%
Milk fat yield increase vs. CON (R11, 11 g/ton, P=0.04): 0.08 kg/day
ECM/DMI increase vs. CON (R11, 11 g/ton, P=0.05): 2.9%
ECM increase vs CON (R11, 11 g/ton, P=0.09): 1.3 kg/day
DMI (R14.5, 14.5 g/ton): 60 lb/d
ECM (R14.5, 14.5 g/ton): 105 lb/d
Estimated Dietary Energy (R14.5, 14.5 g/ton): 1.71 Mcal/kg DM
Milk Fat (R14.5, 14.5 g/ton): 4.04%
Milk Yield (R14.5, 14.5 g/ton): 99 lb/d
Protein (R14.5, 14.5 g/ton): 3.14%
ECM/DMI increase vs. CON (R14.5, 14.5 g/ton, P=0.02): 3.5%
DMI (R18, 18 g/ton): 58 lb/d
ECM (R18, 18 g/ton): 102 lb/d
Estimated Dietary Energy (R18, 18 g/ton): 1.73 Mcal/kg DM
Milk Fat (R18, 18 g/ton): 3.97%
Milk Yield (R18, 18 g/ton): 97 lb/d
Protein (R18, 18 g/ton): 3.14%
Estimated dietary energy increase vs. CON (R18, 18 g/ton, P=0.01): 3.0%
ECM/DMI increase vs. CON (R18, 18 g/ton, P=0.09): 2.3%
DMI (R18, 18 g/ton, listed as Rumensin): 26.4 kg/day
Milk Yield [1]: 44 kg/day
Milk fat percentage [1]: 4.0%
Milk protein percentage [1]: 3.2%
Milk protein yield [1]: 1.4 kg/day
